Laboratory results: patent publication US20230312587A1, “PTERIDINONE COMPOUNDS AND USES THEREOF” (Vertex Pharmaceutical Incorporated, priority 2018, published 2023)
Like-named read-outs stand apart in the source and are kept apart here.

How the values were obtained:
[1] = tested on: Hek293 empty vector; assay: In vitro cell viability (CellTiter-Glo), Hek293 empty vector; format: cell-based
Method: HEK293 (ATCC, catalog #CRL-1573) cells are plated in 10 cm dishes (Corning, product #430167) into 10 mL of complete DMEM cell culture media [DMEM (Life Technologies, product #11960-051) media supplemented with 10% FBS (Hyclone, catalog #SH30071.03), antimycotic/antibiotic (Life Technologies, product #15240-062), and Glutamax (Life Technologies, product #35050-061)] at 3×10^6 cells per dish. Cells are allowed to attach and grow overnight at 37° C. in humidified 5% CO2. Cells are co-transfected with pVSV-G, pCMV-Gag/Pol and pCLPCX_WFS1 using Fugene 6 (Promega, catalog #E2691) according to manufacturer's protocol. Separately, cells are co-transfected with pVSV-G, pCMV-Gag/Pol and pCLPCX to produce control retrovirus. Cell culture media containing retrovirus (viral supernatant) is collected at 48 and 72 hours following transfection, filtered through a 0.4 uM filter, and stored at −80° C.
HEK293 cells are plated in 6 well plates (Corning, product #3516) in 2 mL of complete DMEM cell culture media at 1×10^5 cells well and allowed to attach and grow overnight at 37° C. in humidified 5% CO2. The following day, the media is replaced with viral supernatant to which 10 ug/ml of Polybrene® (Santa Cruz Biotech, catalog #sc-134220) is added. Viral supernatant is replaced 24 hours later with complete DMEM media. Transduced cells are selected in complete DMEM cell culture media containing 1 microgram/mL of puromycin (Life Technologies, catalog #A1113803).
HEK293 cells containing empty pCLPCx vector (HEK293 empty), HEK293 cells stably over-expression WFS1 (HEK293 WFS1), HepG2, and HepG2 cells where WFS1 was depleted via CRISPR/Cas9 (HepG2 WFS1 KO) cells were plated into 96-well black plates (Corning, product #3904) in 100 microliters of complete DMEM cell culture media [DMEM (Life Technologies, product #11960-051) media supplemented with 10% FBS (Hyclone, catalog #SH30071.03), antimycotic/antibiotic (Life Technologies, product #15240-062), and Glutamax (Life Technologies, product #35050-061)] at 1,000 (HEK293) or 5,000 (HepG2) cells per well. Cells were allowed to attach and grow overnight, after which compounds are added at various concentrations. Cell viability was assessed 96 hrs after compound addition with CellTiter-Glo reagent (Promega, catalog #G7570) according to manufacturer's protocol and measurement on a Pherastar luminescence plate reader (BMG Labtech).
The IC50s for the viability of both the Hek293 empty vector and WFS1 over-expressing cells are summarized in Table 47: A<0.06 μM; 0.06 μM≤B<0.6 μM; 0.6 μM≤C<3.0 μM; D≥3.0 μM.

[2] = tested on: β-catenin-TCF-mediated reporter transcription activity in Colo 205 cells; assay: Colo 205 reporter assay (TCF/LEF luciferase); format: cell-based; conditions: Colo 205 TCF/LEF luciferase reporter, five hours after addition of compound, read-out: TCF reporter Colo205 IC50
Method in brief: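 Luciferase signal from a TCF/LEF-driven reporter, stably integrated in Colo 205 colon cancer cells, was measured 5 h after compound addition.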

[3] = Homo sapiens, HEK293, read-out: Hek293 empty vector viability
[4] = Hek293 empty vector, read-out: Hek293 empty vector viability

SMILES | IC50 ([2]; Homo sapiens, COLO 205, 5 h) | IC50 [1, 3] | other results
Cc1nc(NCc2cnn(CC3CCC3)c2)nc2c1N(C)C(=O)[C@H](C)N2C [Compound 7, (7S)-2-(((1-(cyclobutylmethyl)-1H-pyrazol-4-yl)methyl)amino)-4,5,7,8-tetramethyl-7,8-dihydropteridin-6(5H)-one] | 300 to 1000 nM | ≥ 3000 nM | 
CN1C(=O)C(C)(C)N(C)c2nc(NCc3cnn(Cc4cccnc4C(F)(F)F)c3)ncc21 [Compound 237, 5,7,7,8-Tetramethyl-2-(((1-((2-(trifluoromethyl)pyridin-3-yl)methyl)-1H-pyrazol-4-yl)methyl)amino)-7,8-dihydropteridin-6(5H)-one] | 300 to 1000 nM | ≥ 3000 nM | 
Cc1nc(NCc2cnn(Cc3ccc(F)cc3)c2)nc2c1NC(=O)[C@H](C)N2C [Compound 4, (7S)-2-(((1-(4-fluorobenzyl)-1H-pyrazol-4-yl)methyl)amino)-4,7,8-trimethyl-7,8-dihydropteridin-6(5H)-one] | < 300 nM | ≥ 3000 nM | 
Cc1nc(N[C@H]2CC[C@H](Oc3ccc(C(F)(F)F)nc3)C2)nc2c1NC(=O)[C@H](C)N2C (single isomer, unassigned) [Compound 376] |  | ≥ 3000 nM | IC50 [2]: 1000 to 5000 nM
Cc1ncc(Cn2cc(CNc3nc(C)c4c(n3)N(C)[C@@H](C)C(=O)N4)cn2)cn1 [Compound 163, (7S)-4,7,8-trimethyl-2-(((1-((2-methylpyrimidin-5-yl)methyl)-1H-pyrazol-4-yl)methyl)amino)-7,8-dihydropteridin-6(5H)-one] | 1000 to 5000 nM | ≥ 3000 nM | 
Cc1nc(NCc2cnn(C[C@H](C)c3ccc(F)cc3)c2)nc2c1NC(=O)[C@H](C)N2C [Compound 96, (7S)-2-(((1-((R)-2-(4-fluorophenyl)propyl)-1H-pyrazol-4-yl)methyl)amino)-4,7,8-trimethyl-7,8-dihydropteridin-6(5H)-one] | < 300 nM | ≥ 3000 nM | 
Cc1nc(N[C@H]2CC[C@H](Oc3ccc(C(F)(F)F)nc3)C2)nc2c1NC(=O)[C@H](C)N2C (single isomer, unassigned) [Compound 377] |  |  | IC50 [1, 4]: ≥ 3000 nM; IC50 [2]: < 300 nM
Cc1nc(NCc2cnn([C@@H]3CCN(c4ccc(F)cc4)C3)c2)nc2c1NC(=O)[C@H](C)N2C [Compound 170, (7S)-2-(((1-((R)-1-(4-fluorophenyl)pyrrolidin-3-yl)-1H-pyrazol-4-yl)methyl)amino)-4,7,8-trimethyl-7,8-dihydropteridin-6(5H)-one] | < 300 nM | ≥ 3000 nM | 
Cc1nc(NCc2cnn([C@H]3CCN(C4CCC(F)(F)CC4)C3)c2)nc2c1NC(=O)[C@H](C)N2C [Compound 142, (7S)-2-(((1-((S)-1-(4,4-difluorocyclohexyl)pyrrolidin-3-yl)-1H-pyrazol-4-yl)methyl)amino)-4,7,8-trimethyl-7,8-dihydropteridin-6(5H)-one] | 300 to 1000 nM | ≥ 3000 nM | 
Cc1nc(NCc2cnn(Cc3ccc(C(F)(F)F)nc3)c2)nc2c1NC(=O)[C@H](C)N2C [Compound 136, (7S)-4,7,8-trimethyl-2-(((1-((6-(trifluoromethyl)pyridin-3-yl)methyl)-111-pyrazol-4-yl)methyl)amino)-7,8-dihydropteridin-6(5H)-one] |  |  | IC50 [1, 4]: ≥ 3000 nM; IC50 ([1]; cell viability, Hek293 empty vector, read-out: IC50): > 27000 nM; IC50 ([1]; cell viability, Hek293 empty vector, read-out: IC50 class): ≥ 3000 nM; IC50 [2]: < 300 nM
Cc1nc(NCc2cnn([C@@H]3C[C@@H]3c3ccc(F)cc3)c2)nc2c1NC(=O)[C@H](C)N2C [Compound 154, (7S)-2-(((1-((1R,2R)-2-(4-fluorophenyl)cyclopropyl)-1H-pyrazol-4-yl)methyl)amino)-4,7,8-trimethyl-7,8-dihydropteridin-6(5H)-one] | < 300 nM | ≥ 3000 nM | 
Cc1nc(NCc2cnn(Cc3cc(F)c(F)c(F)c3)c2)nc2c1NC(=O)[C@H](C)N2C [Compound 122, (7S)-4,7,8-trimethyl-2-(((1-(3,4,5-trifluorobenzyl)-1H-pyrazol-4-yl)methyl)amino)-7,8-dihydropteridin-6(5H)-one] | < 300 nM | ≥ 3000 nM | 

Now from value to compound, other results behind:

IC50 ([2]; Homo sapiens, COLO 205, 5 h) | SMILES | IC50 [1, 3] | other results
1000 to 5000 nM | Cc1nc(N[C@H]2C[C@@H](Oc3cc(F)c(F)c(F)c3)C2)nc2c1NC(=O)[C@H](C)N2C [Compound 247, (7S)-4,7,8-trimethyl-2-((cis-3-(3,4,5-trifluorophenoxy)cyclobutyl)amino)-7,8-dihydropteridin-6(5H)-one] | ≥ 3000 nM | 
300 to 1000 nM | CC[C@H]1C(=O)Nc2cnc(NCc3cnn(Cc4ccc(C(F)(F)F)nc4)c3)nc2N1C [Compound 427, (7S)-7-ethyl-8-methyl-2-(((1-((6-(trifluoromethyl)pyridin-3-yl)methyl)-1H-pyrazol-4-yl)methyl)amino)-7,8-dihydropteridin-6(5H)-one] | ≥ 3000 nM | 
1000 to 5000 nM | Cc1nc(N[C@H]2CC[C@H](n3ccc(C(F)(F)F)n3)C2)nc2c1NC(=O)[C@H](C)N2C (single isomer, unassigned) [Compound 310] | ≥ 3000 nM | 
< 300 nM | Cc1nc(N[C@H]2C[C@H](Oc3cc(F)c(F)c(F)c3)C2)nc2c1NC(=O)[C@H](C)N2C [Compound 246, (7S)-4,7,8-trimethyl-2-((trans-3-(3,4,5-trifluorophenoxy)cyclobutyl)amino)-7,8-dihydropteridin-6(5H)-one] | ≥ 3000 nM | 
< 300 nM | Cc1nc(NCc2cnn(Cc3ccc(C(F)(F)F)nc3C(C)O)c2)nc2c1NC(=O)[C@H](C)N2C (stereo partly drawn) [Compound 419, (7S)-2-(((1-((2-((S)-1-hydroxyethyl)-6-(trifluoromethyl)pyridin-3-yl)methyl)-1H-pyrazol-4-yl)methyl)amino)-4,7,8-trimethyl-7,8-dihydropteridin-6(5H)-one] | ≥ 3000 nM | 
< 300 nM | Cc1nc(N[C@H]2C[C@H](Oc3ccc(C(F)(F)F)nc3)C2)nc2c1NC(=O)[C@H](C)N2C [Compound 324, (7S)-4,7,8-trimethyl-2-((trans-3-((6-(trifluoromethyl)pyridin-3-yl)oxy)cyclobutyl)amino)-7,8-dihydropteridin-6(5H)-one] | ≥ 3000 nM | 
< 300 nM | Cc1cc(F)ncc1Cn1cc(CNc2nc(C)c3c(n2)N(C)[C@@H](C(C)C)C(=O)N3)cn1 [Compound 423, (7S)-2-(((1-((6-fluoro-4-methylpyridin-3-yl)methyl)-1H-pyrazol-4-yl)methyl)amino)-7-isopropyl-4,8-dimethyl-7,8-dihydropteridin-6(5H)-one] | ≥ 3000 nM | 
< 300 nM | Cc1nc(N[C@H]2C[C@H](Sc3cc(F)c(F)c(F)c3)C2)nc2c1NC(=O)[C@H](C)N2C [Compound 329, (7S)-4,7,8-trimethyl-2-((trans-3-((3,4,5-trifluorophenyl)thio)-cyclobutyl)amino)-7,8-dihydropteridin-6(5H)-one] | ≥ 3000 nM | 
1000 to 5000 nM | Cc1nc(N[C@H]2C[C@H](Sc3ccc(F)cc3)C2)nc2c1N(C)C(=O)[C@H](C)N2C [Compound 307, (7S)-2-((trans-3-((4-fluorophenyl)thio)cyclobutyl)amino)-4,5,7,8-tetramethyl-7,8-dihydropteridin-6(5H)-one] | ≥ 3000 nM | 
1000 to 5000 nM | Cc1nc(N[C@H]2C[C@H](COc3cc(F)c(F)c(F)c3)C2)nc2c1NC(=O)[C@H](C)N2C [Compound 258, (7S)-4,7,8-trimethyl-2-((trans-3-((3,4,5-trifluorophenoxy)methyl)-cyclobutyl)amino)-7,8-dihydropteridin-6(5H)-one] | ≥ 3000 nM | 
< 300 nM | Cc1nc(NCc2cnn(Cc3cncc(F)c3)c2)nc2c1NC(=O)[C@H](C(C)C)N2C [Compound 415, (7S)-2-(((1-((5-fluoropyridin-3-yl)methyl)-1H-pyrazol-4-yl)methyl)amino)-7-isopropyl-4,8-dimethyl-7,8-dihydropteridin-6(5H)-one] | ≥ 3000 nM | 
